Our source for the refractive index and mass density values is the NIST ThermoML archive (doi:10.1021/acs.jced.8b01128).

Data set [1] is described as follows: refractive index (Na D-line) (dimensionless). The settings on record: 298.15 K; 101.33 kPa; Liquid; Standard Abbe refractometry.
For data set [2] the following is noted: 298.15 K; 101.33 kPa; Liquid; Pycnometric method.

SMILES strings stand for the structures. Numbers after ± are expanded uncertainties.

For orientation: refractive index means a measure of how strongly the sample bends light. By mass density is commonly meant mass per unit of volume.

Turning to `O` [water], the refractive index in data set [1] was 1.33299 ± 0.012.

Consider `OCCO` [1,2-ethanediol], for which the refractive index in data set [1] worked out at 1.43159 ± 0.012.

Regarding `CC(O)CO` (centres undefined) [1,2-propanediol], the refractive index in data set [1] turned out to be 1.43262 ± 0.012. Besides, the mass density in data set [2] is listed as 1032.7 ± 0.4 kg/m3.
